According to patent publication US20260116884A1, “PROTAC CHIMERIC COMPOUND, PREPARATION METHOD THEREFOR AND USE THEREOF” (HANGZHOU ZHONGMEIHUADONG PHARMACEUTICAL CO., LTD., priority 2022, published 2026):
Read-outs that look alike come from different tables or passages of the source.

Columns and labels:
human HPK1 [1] = target: T1, human HPK1 (Homo sapiens, UniProt Q92918); test: Assay of in vitro HPK1 enzymatic activity (ADP-Glo); type: biochemical; conditions: 7 nM kinase, 20 uM ATP
Experimental: Compounds were evaluated for their ability to inhibit human HPK1 by IC50 determination using the ADP-Glo method to measure the kinase activity.
Buffer conditions of the enzyme: 50 mM Hepes (pH 7.5), 10 mM MgCl2, 1 mM EGTA, 0.01% Brij35, 2 mM DTT.
Preparation of the Kinase and substrate mixture: the working concentration of the kinase in the HPK1 reaction solution was 7 nM and the working concentration of ATP was 20 uM.
The compound was diluted with DMSO in a dilution plate, with a maximum starting concentration of 1 uM and 10 concentration gradient points (4-fold dilution).
Each of the above 10 concentration gradient points of the compound was then diluted 50-fold into the kinase reaction buffer and shaken on a shaker for 20 min. The kinase was prepared in an enzyme reaction buffer and 2 μl of the HPK1 kinase was added per well of the reaction plate at a HPK1 kinase concentration of 7 nM.
1 μl of diluted compound in the buffer was added per well, and the plate was sealed with a plate sealing film, centrifuged at 1000 g for 30 seconds, and left at room temperature for 10 minutes. An ATP solution was prepared with an enzyme reaction buffer and 2 μl of the ATP solution was added to the reaction plate (the working concentration of ATP was 20 uM). The plate was sealed with a plate sealing film, centrifuged at 1000 g for 30 seconds, and reacted at room temperature for 60 minutes. 4 μL of ADP-Glu was transferred to a 384 reaction plate, centrifuged at 1000 rpm/min for 1 min, and incubated at 25° C. for 40 min. 8 μL of the Detection solution was transferred to a 384 reaction plate, centrifuged at 1000 rpm/min for 1 min, and incubated at 25° C. for 40 min. The RLU (Relative luminescence unit) signal was read using a BMG microplate reader, and the signal intensity was used to characterize the activity level of the kinase.
The kinase activity data was expressed by comparing the kinase activity of the test compound and the blank group (containing only DMSO), and the IC50 value was obtained by curve fitting using the Prism software (GraphPad7.0).

[2] = Pharmacokinetics of single administration in mice; type: in vivo, Balb/c mice; parameters: Vz: unit not given here
Experimental: Female Balb/c mice (weighing 18-22 g) were fasted overnight prior to the experiment. The test compound was dissolved in the vehicle, DMSO:PEG400:30% captisol:HCl=5:20:70:5 (v/v/v/v), and administered by single oral gavage at a dose of 10 mg/kg or by intravenous injection at a dose of 2 mg/kg. Blood samples were collected from the orbital venous plexus at 15 minutes, 30 minutes, and 1, 2, 4, 6, 8, and 24 h after administration. Approximately 0.08 mL of blood was collected at each time point and placed in a 1.5 mL centrifuge tube containing EDTA-2K anticoagulant. Blood samples were centrifuged (3200 g, 10 min, 4° C.) within 2 h to obtain plasma samples. Plasma samples were frozen at −70° C. to −80° C. in an ultra-low temperature freezer prior to processing. Before sample processing, the plasma samples were taken out of the freezer. After thawing at room temperature, 20 μL of each plasma sample was added into a 96-well plate, and then 120 μL of acetonitrile containing an internal standard was added to precipitate proteins. […] The supernatant was taken and mixed with an equal volume of 0.1% aqueous formic acid solution for LC-MS/MS analysis.

human HPK1 [3] = target: T1, human HPK1; test: HPK1 protein degradation assay (WB) in RAMOS cell line; type: cell-based; parameters: The RAMOS cell line was selected as the degradation cell line; endogenous in cells; host or cells: RAMOS; conditions: RAMOS cells, 16 h, Western blot
Experimental: Degradation of HPK1 proteins and DC50/Dmax were determined by the WB method in order to evaluate the in vitro degradative ability of the compound.
The RAMOS cell line was selected as the degradation cell line. Incubation Conditions: RMPI 1640 culture medium supplemented with 10% FBS, 37° C., 5% CO2.
• (1) Plating cells: in a 6 cm dish with 4 ml of the culture medium, cells plated at 2×10^6 cells/dish. • (2) Drug addition: the compound (stock solution concentration: 10 mM) was diluted with DMSO in a dilution plate, with a maximum starting concentration of 10 μM and 7 concentration gradient points (3-fold dilution). 4 μl of each diluted solution was taken, added to a dish, and incubated for 16 h. • (3) Cells were harvested, added with a lysis buffer, and centrifuged at 12000 rpm/min for 20 min. The supernatant was collected. After quantification using a BCA quantification kit, 5× loading buffer was added to denature for 10 min. • (4) 10 μg of denatured protein was added to the SDS-PAGE gel. After electrophoresis and membrane transfer, the plate was blocked with 5% BSA for 1 h, incubate with the primary antibody at 4° C. overnight. After washing off the primary antibody, the secondary antibody was added, incubated at room temperature for 1 h, and washed off.
Imaging: the membranes were scanned with a two-color fluorescence imaging system.

[4] = female, Balb/c, mouse, plasma, iv 2 mg/kg
[5] = female, Balb/c, mouse, plasma, iv 2 mg/kg, read-out: AUC
[6] = female, Balb/c, mouse, plasma, po 10 mg/kg
[7] = female, Balb/c, mouse, plasma, po 10 mg/kg vs iv 2 mg/kg
[8] = female, Balb/c, mouse, plasma, po 10 mg/kg, read-out: AUC
[9] = female, Balb/c, mouse, plasma, po 10 mg/kg, read-out: Cmax

T1 sequence (Q92918 whole entry): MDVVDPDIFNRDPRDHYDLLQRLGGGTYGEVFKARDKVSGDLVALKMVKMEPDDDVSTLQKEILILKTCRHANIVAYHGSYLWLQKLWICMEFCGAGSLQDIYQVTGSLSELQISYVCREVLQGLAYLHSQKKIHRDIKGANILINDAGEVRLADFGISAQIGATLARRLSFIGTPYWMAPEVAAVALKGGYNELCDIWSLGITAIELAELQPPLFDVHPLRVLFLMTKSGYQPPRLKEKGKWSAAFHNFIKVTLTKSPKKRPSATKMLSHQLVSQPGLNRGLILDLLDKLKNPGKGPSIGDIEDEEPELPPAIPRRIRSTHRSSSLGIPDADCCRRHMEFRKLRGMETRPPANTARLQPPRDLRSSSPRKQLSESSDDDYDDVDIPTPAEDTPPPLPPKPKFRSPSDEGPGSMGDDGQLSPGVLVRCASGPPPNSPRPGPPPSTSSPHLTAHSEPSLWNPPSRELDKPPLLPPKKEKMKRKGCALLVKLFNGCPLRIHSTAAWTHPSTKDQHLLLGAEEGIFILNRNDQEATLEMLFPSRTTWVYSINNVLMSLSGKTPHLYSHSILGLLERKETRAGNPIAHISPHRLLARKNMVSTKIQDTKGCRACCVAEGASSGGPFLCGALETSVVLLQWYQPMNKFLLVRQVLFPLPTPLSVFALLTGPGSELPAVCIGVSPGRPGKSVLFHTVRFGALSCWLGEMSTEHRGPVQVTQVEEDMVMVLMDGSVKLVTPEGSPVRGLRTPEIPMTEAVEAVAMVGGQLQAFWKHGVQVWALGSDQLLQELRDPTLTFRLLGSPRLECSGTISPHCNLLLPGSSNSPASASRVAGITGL

DC50 (human HPK1 [3]) [nM]	Dmax (human HPK1 [3]) [%]	SMILES	also measured
–	–	CCN1CCC(n2cc(-c3c[nH]c4ncc(-c5cnn(C6CCN(C7CCC(NC(=O)c8ccc(Cl)c(N9CCC(=O)NC9=O)c8)CC7)CC6)c5)nc34)cn2)CC1 (stereo not drawn) [Compound C036]	IC50 (human HPK1 [1]): 3.7 nM
–	–	CCN1CCC(n2cc(-c3c[nH]c4ncc(-c5ccc(N6CCN(CC7CCN(C(=O)c8ccc(Cl)c(N9CCC(=O)NC9=O)c8)CC7)CC6)nc5)nc34)cn2)CC1 [Compound C020]	IC50 (human HPK1 [1]): 5.5 nM
30.6	76.1	COCCn1cc(-c2c[nH]c3ncc(-c4ccc(N5CCC(CC6CCN(C(=O)c7ccc(Cl)c(N8CCC(=O)NC8=O)c7)CC6)CC5)nc4)nc23)cn1 [Compound C201]	clearance [2, 4]: 6.58 mL/min/kg; half-life [2, 4]: 2.16 h; AUC [2, 5]: 5050 ng·h/mL; half-life [2, 6]: 2.63 h; bioavailability [2, 7]: 34.2%; AUC [2, 8]: 8660 ng·h/mL; Cmax [2, 9]: 4500 ng/mL; Vz ([2]; iv 2 mg/kg): 1230
–	–	CCN1CCC(n2cc(-c3c[nH]c4ncc(-c5ccc(OCCCNC(=O)c6cccc(N7CCC(=O)NC7=O)c6)c(C)c5)nc34)cn2)CC1 [Compound C042]	IC50 (human HPK1 [1]): 2.1 nM
–	–	CCN1CCC(n2cc(-c3c[nH]c4ncc(-c5cnc(N6CCN(CC7CCN(C(=O)c8ccc(Cl)c(N9CCC(=O)NC9=O)c8)CC7)CC6)c(C)c5)nc34)cn2)CC1 [Compound C004]	IC50 (human HPK1 [1]): 1.6 nM
–	–	CCN1CCC(n2cc(-c3c[nH]c4ncc(-c5ccc(OCCNC(=O)c6ccc(Cl)c(N7CCC(=O)NC7=O)c6)c(C)c5)nc34)cn2)CC1 [Compound C034]	IC50 (human HPK1 [1]): 1.2 nM
632	51.6	O=C1CCN(c2cc(C(=O)N3CCC(CC4CCN(c5ccc(-c6cnc7[nH]cc(-c8cnn(CC9CC9)c8)c7n6)cn5)CC4)CC3)ccc2Cl)C(=O)N1 [Compound C177]	–
21.4	–	CCN1CCC(n2cc(-c3c[nH]c4ncc(-c5ccc(N6CCC(CC7CCN(C(=O)c8ccc(Cl)c(N9CCC(=O)NC9=O)c8)CC7)CC6)nc5)nc34)cn2)CC1 [Compound C092]	–
18.7	80.7	O=C1CCN(c2cc(C(=O)N3CCC(CC4CCN(c5ccc(-c6cnc7[nH]cc(-c8cnn(CC(F)F)c8)c7n6)cn5)CC4)CC3)ccc2Cl)C(=O)N1 [Compound C195]	clearance [2, 4]: 0.785 mL/min/kg; half-life [2, 4]: 2.41 h; AUC [2, 5]: 42500 ng·h/mL; half-life [2, 6]: 2.8 h; bioavailability [2, 7]: 20.7%; AUC [2, 8]: 44000 ng·h/mL; Cmax [2, 9]: 14300 ng/mL; Vz ([2]; iv 2 mg/kg): 164
–	–	CCN1CCC(n2cc(-c3c[nH]c4ncc(-c5cnc(OC6CN(C(=O)c7cccc(N8CCC(=O)NC8=O)c7)C6)c(C)c5)nc34)cn2)CC1 [Compound C015]	IC50 (human HPK1 [1]): 6.2 nM
–	–	CCN1CCC(n2cc(-c3c[nH]c4ncc(-c5cnc(N6CCN(CC7CN(c8cccc9c8C(=O)N(C8CCC(=O)NC8=O)C9=O)C7)CC6)c(C)c5)nc34)cn2)CC1 (stereo not drawn) [Compound C012]	IC50 (human HPK1 [1]): 1.9 nM
385	56.4	CCN1CCC(n2cc(-c3c[nH]c4ncc(-c5ccc(N6CCC(CC7CCCN(C(=O)c8ccc(Cl)c(N9CCC(=O)NC9=O)c8)CC7)CC6)nc5)nc34)cn2)CC1 (stereo not drawn) [Compound C085]	–
5.99	91.7	Cn1cc(-c2c[nH]c3ncc(-c4cnc(N5CCC(CC6CCN(C(=O)c7ccc(Cl)c(N8CCC(=O)NC8=O)c7)CC6)CC5)nc4)nc23)cn1 [Compound C203]	–
214	64.4	CC(C)(C#N)n1cc(-c2c[nH]c3ncc(-c4ccc(N5CCC(CC6CCN(C(=O)c7ccc(Cl)c(N8CCC(=O)NC8=O)c7)CC6)CC5)nc4)nc23)cn1 [Compound C181]	–
83	83.8	O=C1CCN(c2cc(C(=O)N3CCC(CC4CCN(c5ccc(-c6cnc7[nH]cc(-c8cnn([C@@H]9CCOC9)c8)c7n6)cn5)CC4)CC3)ccc2Cl)C(=O)N1 [Compound C199]	–
–	93.8	O=C1CCN(c2cc(C(=O)N3CCC(CC4CCN(c5ccc(-c6cnc7[nH]cc(-c8cnn(CC(F)(F)F)c8)c7n6)cn5)CC4)CC3)ccc2Cl)C(=O)N1 [Compound C196]	–
190	73	Cn1cc(-c2c[nH]c3ncc(-c4ccc(N5CCC(CC6CCN(C(=O)c7ccc(Cl)c(C8CCC(=O)NC8=O)c7)CC6)CC5)nc4)nc23)cn1 (stereo not drawn) [Compound C206]	–
89.9	83	CCc1c[nH]c2ncc(-c3ccc(N4CCC(CC5CCN(C(=O)c6ccc(Cl)c(N7CCC(=O)NC7=O)c6)CC5)CC4)nc3)nc12 [Compound C205]	–
32.9	91.8	O=C1CCN(c2cc(C(=O)N3CCC(CC4CCN(c5ccc(-c6cnc7[nH]cc(-c8cn[nH]c8)c7n6)cn5)CC4)CC3)ccc2Cl)C(=O)N1 [Compound C198]	–
23.5	66.4	CCN1CCC(n2cc(-c3c[nH]c4ncc(-c5ccc(N6CCC(CC7CCN(C(=O)c8ccc(Cl)c(N9CCC(=O)NC9=O)c8)CC7C)CC6)cc5)nc34)cn2)CC1 (stereo not drawn) [Compound C115]	–
23.9	66.8	O=C1CCN(c2cc(C(=O)N3CCC(CC4CCN(c5ccc(-c6cnc7[nH]cc(-c8cnn(C(F)F)c8)c7n6)cn5)CC4)CC3)ccc2Cl)C(=O)N1 [Compound C167]	–
29	84	O=C1CCC(c2cc(C(=O)N3CCC(CC4CCN(c5ccc(-c6cnc7[nH]cc(-c8cnn(CCO)c8)c7n6)cn5)CC4)CC3)ccc2Cl)C(=O)N1 (stereo not drawn) [Compound C209]	–
5.28	77.5	O=C1CCN(c2cc(C(=O)N3CCC(CC4CCN(c5ccc(-c6cnc7[nH]cc(-c8cnn(CCF)c8)c7n6)cn5)CC4)CC3)ccc2Cl)C(=O)N1 [Compound C197]	clearance [2, 4]: 4.5 mL/min/kg; AUC ([2]; iv 2 mg/kg): 7397 ng·h/mL; Vz ([2]; iv 2 mg/kg): 917; t1/2 ([2]; iv 2 mg/kg): 2.35 h; AUC ([2]; po 10 mg/kg): 9202 ng·h/mL; Cmax ([2]; po 10 mg/kg): 4680 ng/mL; t1/2 ([2]; po 10 mg/kg): 3.18 h; F % ([2]; po 10 mg/kg vs iv 2 mg/kg): 25.1%
1.21	93	CCN1CCC(n2cc(-c3c[nH]c4ncc(-c5ccc(N6CCC(CN7CCN(C(=O)c8ccc(Cl)c(N9CCC(=O)NC9=O)c8)CC7)CC6)nc5)nc34)cn2)CC1 [Compound C084]	–
198	50.7	Cn1cc(-c2c[nH]c3ncc(-c4ccc(N5CCC(CC6CCN(C(=O)c7ccc(Cl)c(N8CCC(=O)NC8=O)c7)CC6)CC5)cc4)nc23)cn1 [Compound C140]	–
58	85.4	Cc1ccc(C(=O)N2CCC(CC3CCN(c4ncc(-c5cnc6[nH]cc(-c7cnn(C)c7)c6n5)cn4)CC3)CC2)cc1N1CCC(=O)NC1=O [Compound C204]	–
230	58.4	CCN1CCC(n2cc(-c3c[nH]c4ncc(-c5ccc(N6CCC(F)(CN7CCN(C(=O)c8ccc(Cl)c(N9CCC(=O)NC9=O)c8)CC7)CC6)cc5)nc34)cn2)CC1 [Compound C137]	–
